Experiment [1] relates to ERK phosphorylation in KYSE-520 cells. Kind of experiment: Phospho-ERK cellular assay. It is filed as cell-based. To be noted: KYSE-520 cells, 2 h at 37° C., phospho-ERK1/2 (Thr202/Tyr204) TR-FRET, read-out: PERK IC50. A digest of the protocol: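 TR-FRET read-out of ERK1/2 Thr202/Tyr204 phosphorylation was taken after overnight antibody incubation at room temperature. Before that, KYSE-520 cells were treated 2 h at 37 °C with compound dilutions and lysed 30 min. Percent inhibition relative to vehicle and cell-free wells was fitted four-parametrically to give IC50.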
(In general: Time-resolved FRET reads energy transfer from a long-lived donor to a nearby acceptor.)

Experiment [2] deals with SHP-2 enzyme (Met1-Leu525) (Homo sapiens (Human), UniProt Q06124). Kind of experiment: SHP2 inhibition enzymatic assay. It is filed as biochemical. To be noted: 0.5 nM SHP-2 activated by 500 nM IRS1 peptide, 75 μM DiFMUP substrate; read-out: SHP2wt-IC50. The method, boiled down:
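SHP-2 (Met1-Leu525), 0.5 nM, activated with 500 nM IRS1 bis-phosphopeptide, preincubated 30 min with compounds in HEPES pH 7.2 buffer with 5 mM DTT. 75 μM DiFMUP added for 30 min at room temperature, stopped with bpV; fluorescence read. IC50 from four-parameter logistic fit of % inhibition.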

Like-named read-outs stand apart in the source and are kept apart here.

Chain of SHP-2 enzyme (Met1-Leu525) (Q06124 1-525): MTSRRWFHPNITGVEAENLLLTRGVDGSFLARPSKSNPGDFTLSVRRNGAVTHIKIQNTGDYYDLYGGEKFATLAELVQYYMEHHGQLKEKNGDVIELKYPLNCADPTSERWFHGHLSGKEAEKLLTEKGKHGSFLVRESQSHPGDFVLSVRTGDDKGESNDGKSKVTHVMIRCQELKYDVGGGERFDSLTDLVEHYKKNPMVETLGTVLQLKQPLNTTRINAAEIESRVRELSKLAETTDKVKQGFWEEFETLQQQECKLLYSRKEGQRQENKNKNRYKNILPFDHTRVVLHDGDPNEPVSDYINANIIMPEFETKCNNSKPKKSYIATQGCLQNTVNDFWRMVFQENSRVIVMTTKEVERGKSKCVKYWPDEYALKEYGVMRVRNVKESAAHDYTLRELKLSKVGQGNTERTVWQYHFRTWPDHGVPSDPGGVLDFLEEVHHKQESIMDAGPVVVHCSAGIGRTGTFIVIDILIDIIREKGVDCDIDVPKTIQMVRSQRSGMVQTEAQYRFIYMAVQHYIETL

As to `Cc1csc([C@@]2(CN)[C@@H]3CN(c4nc5[nH]nc(-c6ccc7nn(C)cc7c6Cl)c5c(=O)n4C)C[C@@H]32)n1` [Example 472, 6-((1R,5S,6r)-6-(aminomethyl)-6-(4-methylthiazol-2-yl)-3-azabicyclo[3.1.0]hexan-3-yl)-3-(4-chloro-2-methyl-2H-indazol-5-yl)-5-methyl-1,5-dihydro-4H-pyrazolo[3,4-d]pyrimidin-4-one], the IC50 (as a rule, the concentration at which inhibition is half-maximal) in experiment [1] (Homo sapiens, KYSE-520, 2 h) is under 1000 nM; in experiment [2], under 500 nM.

In the case of `NC[C@]1(c2ccccc2F)[C@@H]2CCN(c3cnc4c(-c5cc(F)cc(F)c5)n[nH]c4n3)C[C@@H]21` [Example 330, ((1S,6R,7R)-3-(3-(3,5-difluorophenyl)-1H-pyrazolo[3,4-b]pyrazin-6-yl)-7-(2-fluorophenyl)-3-azabicyclo[4.1.0]heptan-7-yl)methanamine], the IC50 in experiment [1] (Homo sapiens, KYSE-520, 2 h) is under 1000 nM; in experiment [2], under 500 nM.

Take `Cn1c(=O)[nH]c2cc(-c3n[nH]c4nc(N5CC[C@@H]6[C@H](C5)[C@@]6(CN)c5ccccc5F)cnc34)ccc21` [Example 289, 5-(6-((1S,6R,7R)-7-(aminomethyl)-7-(2-fluorophenyl)-3-azabicyclo[4.1.0]heptan-3-yl)-1H-pyrazolo[3,4-b]pyrazin-3-yl)-1-methyl-1,3-dihydro-2H-benzo[d]imidazol-2-one]: the 50% inhibitory concentration (IC50) in experiment [1] (Homo sapiens, KYSE-520, 2 h) is under 1000 nM; in experiment [2], under 500 nM.

Consider `Cc1cc([C@@]2(CN)[C@@H]3CCN(c4cnc5c(-c6cnc7cc(C(F)(F)F)ccc7c6)n[nH]c5n4)C[C@@H]32)no1` [Example 152, ((1S,6R,7S)-7-(5-methylisoxazol-3-yl)-3-(3-(7-(trifluoromethyl)quinolin-3-yl)-1H-pyrazolo[3,4-b]pyrazin-6-yl)-3-azabicyclo[4.1.0]heptan-7-yl)methanamine], for which the 50% inhibitory concentration (IC50) in experiment [1] (Homo sapiens, KYSE-520, 2 h) is under 1000 nM; in experiment [2], under 500 nM.

With `Cc1cc(C2(CN)C3CCN(c4cnc5c(-c6ccc7scnc7c6)n[nH]c5n4)CC32)no1` (centres unmarked) [Example 20, (3-(3-(benzo[d]thiazol-5-yl)-1H-pyrazolo[3,4-b]pyrazin-6-yl)-7-(5-methylisoxazol-3-yl)-3-azabicyclo[4.1.0]heptan-7-yl)methanamine], the IC50 is under 1000 nM in experiment [1] (Homo sapiens, KYSE-520, 2 h) and under 500 nM in experiment [2].

For `Cc1c(-c2n[nH]c3nc(N4CC[C@@H]5[C@H](C4)[C@@]5(CN)c4ccccc4F)cnc23)ccc2nonc12` [Example 193, ((1S,6R,7R)-7-(2-fluorophenyl)-3-(3-(4-methylbenzo[c][1,2,5]oxadiazol-5-yl)-1H-pyrazolo[3,4-b]pyrazin-6-yl)-3-azabicyclo[4.1.0]heptan-7-yl)methanamine], the IC50 is under 1000 nM in experiment [1] (Homo sapiens, KYSE-520, 2 h) and under 500 nM in experiment [2].

Consider `NC[C@]1(c2ccccc2F)[C@@H]2CCN(c3cnc4c(-c5ccc6cnccc6c5)n[nH]c4n3)C[C@@H]21` [Example 247, ((1S,6R,7R)-7-(2-fluorophenyl)-3-(3-(isoquinolin-6-yl)-1H-pyrazolo[3,4-b]pyrazin-6-yl)-3-azabicyclo[4.1.0]heptan-7-yl)methanamine], for which the IC50 was under 1000 nM in experiment [1] (Homo sapiens, KYSE-520, 2 h) and under 500 nM in experiment [2].

In the case of `NC[C@]1(c2ccccc2)[C@@H]2CN(c3cnc4c(-c5ccc6nccnc6c5Cl)n[nH]c4n3)C[C@@H]21` [Example 456, ((1R,5S,6s)-3-(3-(5-chloroquinoxalin-6-yl)-1H-pyrazolo[3,4-b]pyrazin-6-yl)-6-phenyl-3-azabicyclo[3.1.0]hexan-6-yl)methanamine], the IC50 is under 1000 nM in experiment [1] (Homo sapiens, KYSE-520, 2 h) and under 500 nM in experiment [2].

As for `NC[C@]1(c2ccccc2F)[C@@H]2CCN(c3cnc4c(-c5ccc6ncnn6c5)n[nH]c4n3)C[C@@H]21` [Example 327, ((1S,6R,7R)-3-(3-([1,2,4]triazolo[1,5-a]pyridin-6-yl)-1H-pyrazolo[3,4-b]pyrazin-6-yl)-7-(2-fluorophenyl)-3-azabicyclo[4.1.0]heptan-7-yl)methanamine], the IC50 in experiment [1] (Homo sapiens, KYSE-520, 2 h) was under 1000 nM; in experiment [2], under 500 nM.

For the compound `NC[C@]1(c2ccccc2F)[C@@H]2CCN(c3cnc4c(-c5ccc6nn(C(F)F)cc6c5Cl)n[nH]c4n3)C[C@@H]21` [Example 335, ((1S,6R,7R)-3-(3-(4-chloro-2-(difluoromethyl)-2H-indazol-5-yl)-1H-pyrazolo[3,4-b]pyrazin-6-yl)-7-(2-fluorophenyl)-3-azabicyclo[4.1.0]heptan-7-yl)methanamine], the IC50 in experiment [1] (Homo sapiens, KYSE-520, 2 h) is under 1000 nM; in experiment [2], under 500 nM.

For `Cc1nc(-c2ccc(-c3n[nH]c4nc(N5CC[C@@H]6[C@H](C5)[C@@]6(CN)c5ccccc5F)cnc34)c(Cl)c2)no1` [Example 377, ((1S,6R,7R)-3-(3-(2-chloro-4-(5-methyl-1,2,4-oxadiazol-3-yl)phenyl)-1H-pyrazolo[3,4-b]pyrazin-6-yl)-7-(2-fluorophenyl)-3-azabicyclo[4.1.0]heptan-7-yl)methanamine], the IC50 is under 1000 nM in experiment [1] (Homo sapiens, KYSE-520, 2 h) and under 500 nM in experiment [2].

Turning to `Cc1nccc(Sc2ncc(N3CC[C@@H]4[C@H](C3)[C@@]4(CN)c3cc(F)ccc3F)nc2N)c1F` [Example 431, 6-((1S,6R,7R)-7-(aminomethyl)-7-(2,5-difluorophenyl)-3-azabicyclo[4.1.0]heptan-3-yl)-3-((3-fluoro-2-methylpyridin-4-yl)thio)pyrazin-2-amine], the IC50 is under 1000 nM in experiment [1] (Homo sapiens, KYSE-520, 2 h) and under 500 nM in experiment [2].

`COc1cnc2ccc(-c3n[nH]c4nc(N5CC[C@@H]6[C@H](C5)[C@@]6(CN)c5ccccc5F)cnc34)cc2n1` [Example 188, ((1S,6R,7R)-7-(2-fluorophenyl)-3-(3-(3-methoxyquinoxalin-6-yl)-1H-pyrazolo[3,4-b]pyrazin-6-yl)-3-azabicyclo[4.1.0]heptan-7-yl)methanamine]: the IC50 in experiment [1] (Homo sapiens, KYSE-520, 2 h) was under 1000 nM; in experiment [2], under 500 nM.

Regarding `Cc1csc([C@@]2(CN)[C@@H]3CN(c4cnc5c(-c6ccc7nsnc7c6Cl)n[nH]c5n4)C[C@@H]32)n1` [Example 467], the IC50 is under 1000 nM in experiment [1] and under 500 nM in experiment [2].

For the compound `NC[C@]1(c2ccccc2F)[C@@H]2CCN(c3cnc4c(-c5ccc6nn(C7COC7)cc6c5Cl)n[nH]c4n3)C[C@@H]21` [Example 229, ((1S,6R,7R)-3-(3-(4-chloro-2-(oxetan-3-yl)-2H-indazol-5-yl)-1H-pyrazolo[3,4-b]pyrazin-6-yl)-7-(2-fluorophenyl)-3-azabicyclo[4.1.0]heptan-7-yl)methanamine], the half-maximal inhibitory concentration (IC50) in experiment [1] (Homo sapiens, KYSE-520, 2 h) is under 1000 nM; in experiment [2] it was under 500 nM.

For the compound `CNc1nccc(-c2n[nH]c3nc(N4CCC5C(C4)C5(CN)c4cc(C)on4)cnc23)c1Cl` (centres unmarked) [Example 17, 4-(6-(7-(aminomethyl)-7-(5-methylisoxazol-3-yl)-3-azabicyclo[4.1.0]heptan-3-yl)-1H-pyrazolo[3,4-b]pyrazin-3-yl)-3-chloro-N-methylpyridin-2-amine], the IC50 in experiment [1] (Homo sapiens, KYSE-520, 2 h) is under 1000 nM; in experiment [2], under 500 nM.

With `NCC1(c2ccccc2F)[C@@H]2CCN(c3cnc(Sc4ccnc(-n5cccn5)c4Cl)cn3)CC[C@@H]21` (stereo partly drawn) [Example 403, ((1R,7S)-4-(5-((3-chloro-2-(1H-pyrazol-1-yl)pyridin-4-yl)thio)pyrazin-2-yl)-8-(2-fluorophenyl)-4-azabicyclo[5.1.0]octan-8-yl)methanamine], the IC50 in experiment [1] (Homo sapiens, KYSE-520, 2 h) is over 5000 nM; in experiment [2] it was under 500 nM.

With `NCC1C2CCN(c3cnc(Sc4cccnc4C(F)(F)F)c(N)n3)CC12` (centres unmarked) [Example 75, 6-(7-(aminomethyl)-3-azabicyclo[4.1.0]heptan-3-yl)-3-((2-(trifluoromethyl)pyridin-3-yl)thio)pyrazin-2-amine], the half-inhibitory concentration (IC50) was over 5000 nM in experiment [1] (Homo sapiens, KYSE-520, 2 h) and under 500 nM in experiment [2].

Take `Cc1csc([C@@]2(CN)[C@@H]3CN(c4cnc5c(-c6ccc(C(N)=O)cc6Cl)n[nH]c5n4)C[C@@H]32)n1` [Example 512]: the results for the half-inhibitory concentration (IC50) in experiment [1] and in experiment [2] were under 1000 nM and under 500 nM, respectively.

Take `Cn1cc2c(Cl)c(-c3n[nH]c4nc(N5C[C@@H]6[C@H](C5)[C@@]6(CN)c5c(F)cccc5F)cnc34)ccc2n1` [Example 221, ((1R,5S,6s)-3-(3-(4-chloro-2-methyl-2H-indazol-5-yl)-1H-pyrazolo[3,4-b]pyrazin-6-yl)-6-(2,6-difluorophenyl)-3-azabicyclo[3.1.0]hexan-6-yl)methanamine]: the IC50 in experiment [1] (Homo sapiens, KYSE-520, 2 h) was under 1000 nM; in experiment [2], under 500 nM.

`NC[C@]1(c2ccccc2F)[C@@H]2CCN(c3cnc4c(-c5cc6cc[nH]c(=O)c6cc5Cl)n[nH]c4n3)C[C@@H]21` [Example 370, 6-(6-((1S,6R,7R)-7-(aminomethyl)-7-(2-fluorophenyl)-3-azabicyclo[4.1.0]heptan-3-yl)-1H-pyrazolo[3,4-b]pyrazin-3-yl)-7-chloroisoquinolin-1(2H)-one]: the concentration for half-maximal inhibition (IC50) is under 1000 nM in experiment [1] (Homo sapiens, KYSE-520, 2 h) and under 500 nM in experiment [2].

Consider `NC[C@]1(c2ccccc2F)[C@@H]2CCN(c3cnc4c(-c5cc6cccnc6cc5F)n[nH]c4n3)C[C@@H]21` [Example 175, ((1S,6R,7R)-7-(2-fluorophenyl)-3-(3-(7-fluoroquinolin-6-yl)-1H-pyrazolo[3,4-b]pyrazin-6-yl)-3-azabicyclo[4.1.0]heptan-7-yl)methanamine], for which the half-inhibitory concentration (IC50) in experiment [1] (Homo sapiens, KYSE-520, 2 h) was under 1000 nM; in experiment [2] it was under 500 nM.

For the origin of these results see patent US20240109900A1, “AZABICYCLIC SHP2 INHIBITORS” (IRBM S.P.A., priority 2021, published 2024).
